According to patent US20250115669A1, “FGFR1/KLB Targeting Agonistic Antigen-Binding Proteins and Conjugates Thereof with GLP-1R Agonistic Peptides” (SANOFI, priority 2020, published 2025):
Where two headings read alike, the source gives them in different places. Values belong to the compound of their own block, whether it stands above or below them. Peptide text beside a SMILES is read from it.

How the values were obtained:
Type in all cases: cell-based
human GLP-1 receptor = target: T1, human GLP-1 receptor (Homo sapiens, UniProt P43220); assay: HTRF cAMP assay in HEK-293 cells expressing human GLP-1 receptor
T1 construct: expressed in transfected cells; host or cells: PSC-HEK-293
Procedure: (§1) Each vial contained 1.8 ml cells. The vials were slowly frozen to −80° C. in isopropanol, and then transferred in liquid nitrogen for storage.
(§2) Cells were resuspended in assay buffer (cell buffer plus 2 mM IBMX) and adjusted to a cell density of 1 million cells/ml.
(§3) For measurement of cAMP generation, 5 μl cells (final 5000 cells/well) and 5 μl of test compound were added to a 384-well plate, followed by incubation for 30 min at room temperature.
(§4) The cAMP generated was determined using a kit from Cisbio Corp. based on HTRF (Homogenous Time Resolved Fluorescence). The cAMP assay was performed according to manufacturer's instructions (Cisbio).

[1] = target: T2, human glucagon (GCG) receptor (Homo sapiens, UniProt P47871); assay: HTRF cAMP assay in HEK-293 cells expressing human glucagon receptor
T2 construct: expressed in transfected cells; host or cells: PSC-HEK-293
Procedure: as §1, §2, §3, §4

human GIP receptor = target: T3, human GIP receptor (Homo sapiens, UniProt P48546); assay: HTRF cAMP assay in HEK-293 cells expressing human GIP receptor
T3 construct: expressed in transfected cells; host or cells: PSC-HEK-293
T3 sequence (P48546 22-466): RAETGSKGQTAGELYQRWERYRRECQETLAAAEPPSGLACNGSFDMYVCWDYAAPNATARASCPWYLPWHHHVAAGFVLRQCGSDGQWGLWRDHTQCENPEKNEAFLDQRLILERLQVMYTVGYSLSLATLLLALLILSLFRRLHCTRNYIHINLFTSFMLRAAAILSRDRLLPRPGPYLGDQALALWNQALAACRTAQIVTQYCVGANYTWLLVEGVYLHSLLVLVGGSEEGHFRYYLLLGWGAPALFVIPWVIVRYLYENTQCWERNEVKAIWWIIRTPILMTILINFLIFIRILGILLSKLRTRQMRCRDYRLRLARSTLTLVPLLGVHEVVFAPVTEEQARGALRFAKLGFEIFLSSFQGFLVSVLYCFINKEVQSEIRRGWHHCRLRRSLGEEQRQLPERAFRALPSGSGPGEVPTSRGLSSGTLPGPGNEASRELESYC
Procedure: as §1, §2, §3, §4

T1 sequence (P43220 24-463): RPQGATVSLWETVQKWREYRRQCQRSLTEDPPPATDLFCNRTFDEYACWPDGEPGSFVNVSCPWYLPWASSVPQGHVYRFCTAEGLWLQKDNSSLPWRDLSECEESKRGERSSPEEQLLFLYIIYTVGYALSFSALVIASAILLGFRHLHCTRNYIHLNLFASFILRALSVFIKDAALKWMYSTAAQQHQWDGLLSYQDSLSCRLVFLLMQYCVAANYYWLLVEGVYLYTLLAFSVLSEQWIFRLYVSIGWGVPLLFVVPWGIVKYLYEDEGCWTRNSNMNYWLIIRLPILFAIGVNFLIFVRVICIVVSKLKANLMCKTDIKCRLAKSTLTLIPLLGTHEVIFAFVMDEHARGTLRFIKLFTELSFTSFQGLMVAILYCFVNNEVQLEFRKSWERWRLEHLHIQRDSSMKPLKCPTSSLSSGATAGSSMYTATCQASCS
T2 sequence (P47871 26-477): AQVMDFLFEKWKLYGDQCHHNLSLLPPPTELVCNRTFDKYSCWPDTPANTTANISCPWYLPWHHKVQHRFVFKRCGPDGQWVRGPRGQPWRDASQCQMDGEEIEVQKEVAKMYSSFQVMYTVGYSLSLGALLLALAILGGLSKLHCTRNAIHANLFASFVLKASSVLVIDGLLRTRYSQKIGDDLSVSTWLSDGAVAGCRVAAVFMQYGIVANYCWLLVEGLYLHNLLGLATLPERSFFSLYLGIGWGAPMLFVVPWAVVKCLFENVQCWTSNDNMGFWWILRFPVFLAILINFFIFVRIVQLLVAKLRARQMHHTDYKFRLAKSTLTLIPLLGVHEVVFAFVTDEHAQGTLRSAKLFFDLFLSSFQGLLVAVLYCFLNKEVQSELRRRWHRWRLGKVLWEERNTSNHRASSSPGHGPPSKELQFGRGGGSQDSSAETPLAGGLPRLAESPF

SMILES: CC[C@H](C)[C@H](NC(=O)[C@H](CO)NC(=O)[C@H](CC(C)C)NC(=O)[C@H](CC(=O)O)NC(=O)[C@H](CO)NC(=O)[C@@H](NC(=O)[C@H](Cc1ccccc1)NC(=O)[C@@H](NC(=O)CNC(=O)[C@H](CCC(=O)O)NC(=O)CNC(=O)[C@@H](N)Cc1c[nH]cn1)[C@@H](C)O)[C@@H](C)O)C(=O)N[C@@H](CCC(N)=O)C(=O)N[C@@H](CC(C)C)C(=O)N[C@@H](CC(=O)O)C(=O)N[C@@H](CCC(=O)O)C(=O)N[C@@H](CCC(=O)O)C(=O)N[C@@H](C)C(=O)N[C@H](C(=O)N[C@@H](CCCNC(=N)N)C(=O)N[C@@H](CC(C)C)C(=O)N[C@@H](Cc1ccccc1)C(=O)N[C@H](C(=O)N[C@@H](CCC(=O)O)C(=O)N[C@@H](Cc1c[nH]c2ccccc12)C(=O)N[C@@H](CC(C)C)C(=O)N[C@@H](CCC(=O)O)C(=O)N[C@@H](C)C(=O)N[C@H](C(=O)NCC(=O)N1CCC[C@H]1C(=O)N[C@H](C(=O)N[C@@H](CO)C(=O)NCC(=O)N[C@@H](C)C(=O)N1CCC[C@H]1C(=O)N1CCC[C@H]1C(=O)N1CCC[C@H]1C(=O)N[C@@H](CO)C(N)=O)C(C)C)[C@@H](C)O)[C@@H](C)CC)C(C)C [Ab P006] (H-HGEGTFTSDLSIQLDEEAVRLFIEWLEATGPVSGAPPPS-NH2)
EC50 (human GLP-1 receptor): 0.0147 nM

SMILES: CC[C@H](C)[C@H](NC(=O)[C@H](Cc1ccccc1)NC(=O)[C@H](CC(C)C)NC(=O)[C@H](CCC(N)=O)NC(=O)[C@@H](NC(=O)[C@H](CCCNC(=N)N)NC(=O)[C@H](CCC(=O)O)NC(=O)[C@H](CCC(=O)O)NC(=O)[C@H](CCC(=O)O)NC(=O)[C@H](CC(C)C)NC(=O)[C@H](CCC(N)=O)NC(=O)[C@H](CCCCN)NC(=O)[C@H](CO)NC(=O)[C@H](CC(C)C)NC(=O)[C@H](CC(=O)O)NC(=O)[C@H](CO)NC(=O)[C@@H](NC(=O)[C@H](Cc1ccccc1)NC(=O)[C@@H](NC(=O)CNC(=O)[C@H](CCC(=O)O)NC(=O)CNC(=O)[C@@H](N)Cc1c[nH]cn1)[C@@H](C)O)[C@@H](C)O)C(C)C)C(=O)N[C@@H](CCC(=O)O)C(=O)N[C@@H](Cc1c[nH]c2ccccc12)C(=O)N[C@@H](CC(C)C)C(=O)N[C@@H](CCCCN)C(=O)N[C@@H](C)C(=O)N[C@H](C(=O)NCC(=O)N1CCC[C@H]1C(=O)N[C@@H](CO)C(=O)N[C@@H](CO)C(=O)NCC(=O)N[C@@H](C)C(=O)N1CCC[C@H]1C(=O)N1CCC[C@H]1C(=O)N1CCC[C@H]1C(=O)N[C@@H](CO)C(N)=O)[C@@H](C)O [Ab P008] (H-HGEGTFTSDLSKQLEEERVQLFIEWLKATGPSSGAPPPS-NH2)
EC50 (human GLP-1 receptor): 0.0232 nM
EC50 [1]: > 10 nM
EC50 (human GIP receptor): > 10 nM

SMILES: CC[C@H](C)[C@H](NC(=O)[C@H](Cc1ccccc1)NC(=O)[C@H](CC(C)C)NC(=O)[C@H](CCC(N)=O)NC(=O)[C@@H](NC(=O)[C@H](C)NC(=O)[C@H](CCC(=O)O)NC(=O)[C@H](CCC(=O)O)NC(=O)[C@H](CCC(=O)O)NC(=O)[C@H](CC(C)C)NC(=O)[C@H](CCC(N)=O)NC(=O)[C@H](CCCCN)NC(=O)[C@H](CO)NC(=O)[C@H](CC(C)C)NC(=O)[C@H](CC(=O)O)NC(=O)[C@H](CO)NC(=O)[C@@H](NC(=O)[C@H](Cc1ccccc1)NC(=O)[C@@H](NC(=O)CNC(=O)[C@H](CCC(=O)O)NC(=O)CNC(=O)[C@@H](N)Cc1c[nH]cn1)[C@@H](C)O)[C@@H](C)O)C(C)C)C(=O)N[C@@H](CCC(=O)O)C(=O)N[C@@H](Cc1c[nH]c2ccccc12)C(=O)N[C@@H](CC(C)C)C(=O)N[C@@H](CC(C)C)C(=O)N[C@@H](C)C(=O)N[C@H](C(=O)NCC(=O)N1CCC[C@H]1C(=O)N[C@@H](CO)C(=O)N[C@@H](CO)C(=O)NCC(=O)N[C@@H](C)C(=O)N1CCC[C@H]1C(=O)N1CCC[C@H]1C(=O)N1CCC[C@H]1C(=O)N[C@@H](CO)C(N)=O)[C@@H](C)O [Ab P010] (H-HGEGTFTSDLSKQLEEEAVQLFIEWLLATGPSSGAPPPS-NH2)
EC50 (human GLP-1 receptor): 0.0035 nM

SMILES: CC[C@H](C)[C@H](NC(=O)[C@H](Cc1ccccc1)NC(=O)[C@H](CC(C)C)NC(=O)[C@H](CCCNC(=N)N)NC(=O)[C@@H](NC(=O)[C@H](C)NC(=O)[C@H](CCC(=O)O)NC(=O)[C@H](CCC(=O)O)NC(=O)[C@H](CCC(=O)O)NC(=O)[C@H](CC(C)C)NC(=O)[C@H](CCC(N)=O)NC(=O)[C@H](CCCCN)NC(=O)[C@H](CO)NC(=O)[C@H](CC(C)C)NC(=O)[C@H](CC(=O)O)NC(=O)[C@H](CO)NC(=O)[C@@H](NC(=O)[C@H](Cc1ccccc1)NC(=O)[C@@H](NC(=O)CNC(=O)[C@H](CCC(=O)O)NC(=O)CNC(=O)[C@H](Cc1c[nH]cn1)NC(=O)CN)[C@@H](C)O)[C@@H](C)O)C(C)C)C(=O)N[C@@H](CCC(=O)O)C(=O)N[C@@H](Cc1c[nH]c2ccccc12)C(=O)N[C@@H](CC(C)C)C(=O)N[C@@H](CCCCN)C(=O)N[C@@H](C)C(=O)NCC(=O)NCC(=O)N1CCC[C@H]1C(=O)N[C@@H](CCCCN)C(=O)N[C@@H](CCCCN)C(=O)N[C@H](C(=O)N[C@@H](CCCNC(=N)N)C(=O)N[C@@H](Cc1ccc(O)cc1)C(=O)N[C@@H](CO)C(N)=O)[C@@H](C)CC [Ab P013] (H-GHGEGTFTSDLSKQLEEEAVRLFIEWLKAGGPKKIRYS-NH2)
EC50 (human GLP-1 receptor): 0.0099 nM
EC50 [1]: > 10 nM
EC50 (human GIP receptor): > 10 nM

EC50 (human GLP-1 receptor; HEK-293 cells, read-out: HTRF cAMP EC50 Human GLP-1R): 0.0105 nM
EC50 ([1]; HEK-293 cells, read-out: HTRF cAMP EC50 Human GCGR): 5.4 nM
EC50 (human GIP receptor; HEK-293 cells, read-out: HTRF cAMP EC50 Human GIPR): > 10 nM
SMILES: CC[C@H](C)[C@H](NC(=O)[C@H](Cc1ccccc1)NC(=O)[C@H](CC(C)C)NC(=O)[C@H](CCCNC(=N)N)NC(=O)[C@@H](NC(=O)[C@H](C)NC(=O)[C@H](CCC(=O)O)NC(=O)[C@H](CCC(=O)O)NC(=O)[C@H](CCC(=O)O)NC(=O)[C@H](CC(C)C)NC(=O)[C@H](CCC(N)=O)NC(=O)[C@H](CCCCN)NC(=O)[C@H](CO)NC(=O)[C@H](CCCCN)NC(=O)[C@H](CC(=O)O)NC(=O)[C@H](CO)NC(=O)[C@@H](NC(=O)[C@H](Cc1ccccc1)NC(=O)[C@@H](NC(=O)CNC(=O)[C@H](CCC(=O)O)NC(=O)CNC(=O)[C@H](Cc1c[nH]cn1)NC(=O)CN)[C@@H](C)O)[C@@H](C)O)C(C)C)C(=O)N[C@@H](CCC(=O)O)C(=O)N[C@@H](Cc1c[nH]c2ccccc12)C(=O)N[C@@H](CC(C)C)C(=O)N[C@@H](CCCCN)C(=O)N[C@@H](C)C(=O)NCC(=O)NCC(=O)N1CCC[C@H]1C(=O)N[C@@H](CCCCN)C(=O)N[C@@H](CCCCN)C(=O)N[C@H](C(=O)N[C@@H](CCCNC(=N)N)C(=O)N[C@@H](Cc1ccc(O)cc1)C(=O)N[C@@H](CO)C(N)=O)[C@@H](C)CC [Ab P014] (H-GHGEGTFTSDKSKQLEEEAVRLFIEWLKAGGPKKIRYS-NH2; N-terminus assumed)

SMILES: CC[C@H](C)[C@H](NC(=O)[C@H](CO)NC(=O)[C@H](CC(C)C)NC(=O)[C@H](CC(=O)O)NC(=O)[C@H](CO)NC(=O)[C@@H](NC(=O)[C@H](Cc1ccccc1)NC(=O)[C@@H](NC(=O)CNC(=O)[C@H](CCC(=O)O)NC(=O)CNC(=O)[C@H](Cc1c[nH]cn1)NC(=O)CN)[C@@H](C)O)[C@@H](C)O)C(=O)N[C@@H](CCC(N)=O)C(=O)N[C@@H](CC(C)C)C(=O)N[C@@H](CCC(=O)O)C(=O)N[C@@H](CCC(=O)O)C(=O)N[C@@H](CCC(=O)O)C(=O)N[C@@H](C)C(=O)N[C@H](C(=O)N[C@@H](CCCNC(=N)N)C(=O)N[C@@H](CC(C)C)C(=O)N[C@@H](Cc1ccccc1)C(=O)N[C@H](C(=O)N[C@@H](CCC(=O)O)C(=O)N[C@@H](Cc1c[nH]c2ccccc12)C(=O)N[C@@H](CC(C)C)C(=O)N[C@@H](CC(C)C)C(=O)N[C@@H](C)C(=O)NCC(=O)NCC(=O)N1CCC[C@H]1C(=O)N[C@@H](CO)C(=O)N[C@@H](CO)C(=O)NCC(=O)N[C@@H](C)C(=O)N1CCC[C@H]1C(=O)N1CCC[C@H]1C(=O)N1CCC[C@H]1C(=O)N[C@@H](CO)C(N)=O)[C@@H](C)CC)C(C)C [Ab P019]
EC50 (human GLP-1 receptor): 0.0276 nM

SMILES: CC[C@H](C)[C@H](NC(=O)[C@H](CO)NC(=O)[C@H](CC(C)C)NC(=O)[C@H](CC(=O)O)NC(=O)[C@H](CO)NC(=O)[C@@H](NC(=O)[C@H](Cc1ccccc1)NC(=O)[C@@H](NC(=O)CNC(=O)[C@H](CCC(=O)O)NC(=O)CNC(=O)[C@H](Cc1c[nH]cn1)NC(=O)CN)[C@@H](C)O)[C@@H](C)O)C(=O)N[C@@H](CCC(N)=O)C(=O)N[C@@H](CC(C)C)C(=O)N[C@@H](CCC(=O)O)C(=O)N[C@@H](CCC(=O)O)C(=O)N[C@@H](CCC(=O)O)C(=O)N[C@@H](C)C(=O)N[C@H](C(=O)N[C@@H](CCCNC(=N)N)C(=O)N[C@@H](CC(C)C)C(=O)N[C@@H](Cc1ccccc1)C(=O)N[C@H](C(=O)N[C@@H](CCC(=O)O)C(=O)N[C@@H](Cc1c[nH]c2ccccc12)C(=O)N[C@@H](CC(C)C)C(=O)N[C@@H](CC(C)C)C(=O)N[C@@H](C)C(=O)N[C@H](C(=O)NCC(=O)N1CCC[C@H]1C(=O)N[C@@H](CO)C(=O)N[C@@H](CO)C(=O)NCC(=O)N[C@@H](C)C(=O)N1CCC[C@H]1C(=O)N1CCC[C@H]1C(=O)N1CCC[C@H]1C(=O)N[C@@H](CO)C(N)=O)[C@@H](C)O)[C@@H](C)CC)C(C)C [Ab P020]
EC50 (human GLP-1 receptor): 0.206 nM
